Measured values taken from the kinase profiling compilation of Christmann-Franck et al. (2016).

Columns and labels:
Test in all cases: radiometric filter-binding kinase assay, Kinase HotSpot
Conditions in all cases: compound 0.5 µM; ATP 10 µM
IRAK1 (human) = IRAK1 (human) (UniProt P51617)
CAMK1G (human) = CAMK1G (human) (UniProt Q96NX5)
VRK1 (human) = VRK1 (human) (UniProt Q99986)
YES1 (human) = YES1 (human) (UniProt P07947)
CHEK1 (human) = CHEK1 (human) (UniProt O14757)
TAOK3 (human) = TAOK3 (human) (UniProt Q9H2K8)
CDK2 CCNA2 (human) = CDK2 CCNA2 (human) (UniProt P24941+P20248)
[1] = target: JAK1 JH1 catalytic (human) (UniProt P23458)
DAPK3 (human) = DAPK3 (human) (UniProt O43293)
MAPK1 (human) = MAPK1 (human) (UniProt P28482)
CAMK2D (human) = CAMK2D (human) (UniProt Q13557)
EPHB4 (human) = EPHB4 (human) (UniProt P54760)
TGFBR1 (human) = TGFBR1 (human) (UniProt P36897)
JAK3 JH1 JH2 (human) = JAK3 JH1 JH2 (human) (UniProt P52333)
TSSK1B (human) = TSSK1B (human) (UniProt Q9BXA7)
STK39 (human) = STK39 (human) (UniProt Q9UEW8)
MYLK2 (human) = MYLK2 (human) (UniProt Q9H1R3)
STK11 (human) = STK11 (human) (UniProt Q15831)
GRK4 (human) = GRK4 (human) (UniProt P32298)
CLK1 (human) = CLK1 (human) (UniProt P49759)
CAMK2B (human) = CAMK2B (human) (UniProt Q13554)
TYRO3 (human) = TYRO3 (human) (UniProt Q06418)
PBK (human) = PBK (human) (UniProt Q96KB5)
GRK7 (human) = GRK7 (human) (UniProt Q8WTQ7)
PRKCH (human) = PRKCH (human) (UniProt P24723)
DAPK2 (human) = DAPK2 (human) (UniProt Q9UIK4)
CAMK2A (human) = CAMK2A (human) (UniProt Q9UQM7)
CDK6 CCND3 (human) = CDK6 CCND3 (human) (UniProt P30281+Q00534)
[2] = target: TYK2 JH1 catalytic (human) (UniProt P29597)
AKT3 (human) = AKT3 (human) (UniProt Q9Y243)
PRKCI (human) = PRKCI (human) (UniProt P41743)
RPS6KA5 KD2 (human) = RPS6KA5 KD2 (human) (UniProt O75582)
HIPK4 (human) = HIPK4 (human) (UniProt Q8NE63)
STK33 (human) = STK33 (human) (UniProt Q9BYT3)
ROCK1 (human) = ROCK1 (human) (UniProt Q13464)
CDK4 CCND1 (human) = CDK4 CCND1 (human) (UniProt P24385+P11802)
PIM2 (human) = PIM2 (human) (UniProt Q9P1W9)
TSSK2 (human) = TSSK2 (human) (UniProt Q96PF2)
PRKD1 (human) = PRKD1 (human) (UniProt Q15139)
CDK3 CCNE1 (human) = CDK3 CCNE1 (human) (UniProt Q00526+P24864)
RIPK2 (human) = RIPK2 (human) (UniProt O43353)

Chain of CAMK2B (human) (Q13554 whole entry, looked up): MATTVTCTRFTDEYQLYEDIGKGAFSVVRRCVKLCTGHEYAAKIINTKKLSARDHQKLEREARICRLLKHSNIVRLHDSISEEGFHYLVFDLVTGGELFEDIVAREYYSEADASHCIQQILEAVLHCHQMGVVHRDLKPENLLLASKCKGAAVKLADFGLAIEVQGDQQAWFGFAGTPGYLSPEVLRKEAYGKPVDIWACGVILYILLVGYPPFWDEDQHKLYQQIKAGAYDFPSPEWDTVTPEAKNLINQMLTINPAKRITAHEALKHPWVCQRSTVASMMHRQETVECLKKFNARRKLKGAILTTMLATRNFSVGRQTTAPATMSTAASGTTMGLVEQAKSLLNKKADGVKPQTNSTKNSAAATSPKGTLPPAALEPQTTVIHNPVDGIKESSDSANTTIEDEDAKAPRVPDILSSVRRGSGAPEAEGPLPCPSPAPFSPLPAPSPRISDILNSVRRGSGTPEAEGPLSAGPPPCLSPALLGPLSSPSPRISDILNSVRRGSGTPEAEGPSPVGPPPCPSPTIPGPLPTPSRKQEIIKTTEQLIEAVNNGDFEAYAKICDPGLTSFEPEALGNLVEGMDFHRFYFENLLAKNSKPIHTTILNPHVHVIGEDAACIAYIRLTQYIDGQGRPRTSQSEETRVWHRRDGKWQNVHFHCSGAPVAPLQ
Chain of PIM2 (human) (Q9P1W9 whole entry, looked up): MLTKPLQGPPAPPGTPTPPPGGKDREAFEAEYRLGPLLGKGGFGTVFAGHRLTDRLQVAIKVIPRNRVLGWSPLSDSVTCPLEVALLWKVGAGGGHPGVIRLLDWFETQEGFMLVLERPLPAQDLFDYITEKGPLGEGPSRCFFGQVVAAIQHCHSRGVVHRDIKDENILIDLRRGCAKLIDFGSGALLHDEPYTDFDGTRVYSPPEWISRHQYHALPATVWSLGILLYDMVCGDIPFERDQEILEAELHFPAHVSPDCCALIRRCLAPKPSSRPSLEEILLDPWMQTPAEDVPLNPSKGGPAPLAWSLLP
Chain of DAPK2 (human) (Q9UIK4 whole entry, looked up): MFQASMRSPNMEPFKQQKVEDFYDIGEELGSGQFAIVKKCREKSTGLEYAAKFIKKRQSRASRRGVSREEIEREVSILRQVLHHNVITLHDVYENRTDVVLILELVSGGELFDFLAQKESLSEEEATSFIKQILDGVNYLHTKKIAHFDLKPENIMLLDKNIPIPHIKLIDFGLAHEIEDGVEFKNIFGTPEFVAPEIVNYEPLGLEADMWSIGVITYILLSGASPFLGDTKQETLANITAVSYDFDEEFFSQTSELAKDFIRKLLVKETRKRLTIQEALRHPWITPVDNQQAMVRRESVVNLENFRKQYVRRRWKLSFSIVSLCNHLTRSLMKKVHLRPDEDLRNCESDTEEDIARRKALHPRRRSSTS
Chain of CLK1 (human) (P49759 whole entry, looked up): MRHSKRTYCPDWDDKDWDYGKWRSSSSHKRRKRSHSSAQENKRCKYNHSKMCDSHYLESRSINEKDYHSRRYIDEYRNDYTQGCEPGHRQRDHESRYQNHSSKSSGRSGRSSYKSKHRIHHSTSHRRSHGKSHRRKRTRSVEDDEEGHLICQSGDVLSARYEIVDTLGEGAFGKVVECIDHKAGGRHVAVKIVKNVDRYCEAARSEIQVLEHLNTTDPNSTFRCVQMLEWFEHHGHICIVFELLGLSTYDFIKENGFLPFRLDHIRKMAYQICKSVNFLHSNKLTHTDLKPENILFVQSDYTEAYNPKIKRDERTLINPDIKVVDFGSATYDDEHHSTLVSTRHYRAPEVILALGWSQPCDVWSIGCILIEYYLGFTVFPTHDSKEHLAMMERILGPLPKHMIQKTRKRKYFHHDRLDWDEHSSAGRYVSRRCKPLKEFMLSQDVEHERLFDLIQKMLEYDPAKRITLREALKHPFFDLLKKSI
Chain of IRAK1 (human) (P51617 whole entry, looked up): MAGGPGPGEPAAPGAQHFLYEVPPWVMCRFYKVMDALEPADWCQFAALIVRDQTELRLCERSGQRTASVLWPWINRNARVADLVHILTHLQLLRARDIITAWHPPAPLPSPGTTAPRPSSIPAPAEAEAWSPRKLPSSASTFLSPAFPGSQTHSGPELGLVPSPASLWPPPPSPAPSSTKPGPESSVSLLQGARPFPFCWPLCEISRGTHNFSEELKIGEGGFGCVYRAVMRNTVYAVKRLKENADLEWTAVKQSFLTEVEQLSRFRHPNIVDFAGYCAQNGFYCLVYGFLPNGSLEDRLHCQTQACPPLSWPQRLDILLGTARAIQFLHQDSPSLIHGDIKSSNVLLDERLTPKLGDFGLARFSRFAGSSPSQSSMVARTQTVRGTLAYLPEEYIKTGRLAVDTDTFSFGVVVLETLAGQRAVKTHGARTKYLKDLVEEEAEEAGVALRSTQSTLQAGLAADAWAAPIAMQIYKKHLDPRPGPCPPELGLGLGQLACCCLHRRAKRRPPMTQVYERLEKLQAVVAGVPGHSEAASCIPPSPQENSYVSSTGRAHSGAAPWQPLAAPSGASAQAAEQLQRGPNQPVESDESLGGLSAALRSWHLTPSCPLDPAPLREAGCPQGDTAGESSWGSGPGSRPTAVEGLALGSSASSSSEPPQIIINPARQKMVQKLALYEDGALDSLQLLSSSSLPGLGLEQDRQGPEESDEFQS
Chain of PBK (human) (Q96KB5 whole entry, looked up): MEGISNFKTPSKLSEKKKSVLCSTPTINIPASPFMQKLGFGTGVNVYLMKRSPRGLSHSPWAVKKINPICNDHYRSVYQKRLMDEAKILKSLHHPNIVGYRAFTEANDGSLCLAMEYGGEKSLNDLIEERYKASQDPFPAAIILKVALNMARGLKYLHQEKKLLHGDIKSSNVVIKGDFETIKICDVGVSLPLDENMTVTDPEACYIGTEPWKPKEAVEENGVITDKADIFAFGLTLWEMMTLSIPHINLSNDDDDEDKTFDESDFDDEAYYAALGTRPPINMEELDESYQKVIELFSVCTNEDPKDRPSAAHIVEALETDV
Chain of AKT3 (human) (Q9Y243 whole entry, looked up): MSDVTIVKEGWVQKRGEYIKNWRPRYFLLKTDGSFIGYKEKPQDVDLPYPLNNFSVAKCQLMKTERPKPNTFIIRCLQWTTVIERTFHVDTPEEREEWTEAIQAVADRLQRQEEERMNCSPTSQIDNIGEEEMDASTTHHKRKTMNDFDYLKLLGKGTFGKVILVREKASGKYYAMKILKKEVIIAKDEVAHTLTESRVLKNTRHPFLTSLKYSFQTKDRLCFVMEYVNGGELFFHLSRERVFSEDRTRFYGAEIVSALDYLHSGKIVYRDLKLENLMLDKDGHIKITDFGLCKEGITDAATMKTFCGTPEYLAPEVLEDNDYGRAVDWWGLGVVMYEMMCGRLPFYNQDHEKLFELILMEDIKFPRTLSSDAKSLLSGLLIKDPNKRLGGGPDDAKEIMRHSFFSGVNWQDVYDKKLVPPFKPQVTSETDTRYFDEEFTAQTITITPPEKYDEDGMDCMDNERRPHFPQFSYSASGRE
Chain of MAPK1 (human) (P28482 whole entry, looked up): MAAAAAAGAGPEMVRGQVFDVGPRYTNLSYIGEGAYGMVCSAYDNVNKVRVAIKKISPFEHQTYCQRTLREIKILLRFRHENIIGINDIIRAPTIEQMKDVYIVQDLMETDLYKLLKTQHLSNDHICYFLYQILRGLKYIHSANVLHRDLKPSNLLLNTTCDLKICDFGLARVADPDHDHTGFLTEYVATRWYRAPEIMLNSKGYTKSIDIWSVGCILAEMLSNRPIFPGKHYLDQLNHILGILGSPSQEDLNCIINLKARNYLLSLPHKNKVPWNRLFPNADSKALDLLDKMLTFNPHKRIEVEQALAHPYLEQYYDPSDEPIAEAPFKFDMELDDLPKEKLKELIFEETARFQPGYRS
Chain of TYK2 JH1 catalytic (human) (P29597 whole entry, looked up): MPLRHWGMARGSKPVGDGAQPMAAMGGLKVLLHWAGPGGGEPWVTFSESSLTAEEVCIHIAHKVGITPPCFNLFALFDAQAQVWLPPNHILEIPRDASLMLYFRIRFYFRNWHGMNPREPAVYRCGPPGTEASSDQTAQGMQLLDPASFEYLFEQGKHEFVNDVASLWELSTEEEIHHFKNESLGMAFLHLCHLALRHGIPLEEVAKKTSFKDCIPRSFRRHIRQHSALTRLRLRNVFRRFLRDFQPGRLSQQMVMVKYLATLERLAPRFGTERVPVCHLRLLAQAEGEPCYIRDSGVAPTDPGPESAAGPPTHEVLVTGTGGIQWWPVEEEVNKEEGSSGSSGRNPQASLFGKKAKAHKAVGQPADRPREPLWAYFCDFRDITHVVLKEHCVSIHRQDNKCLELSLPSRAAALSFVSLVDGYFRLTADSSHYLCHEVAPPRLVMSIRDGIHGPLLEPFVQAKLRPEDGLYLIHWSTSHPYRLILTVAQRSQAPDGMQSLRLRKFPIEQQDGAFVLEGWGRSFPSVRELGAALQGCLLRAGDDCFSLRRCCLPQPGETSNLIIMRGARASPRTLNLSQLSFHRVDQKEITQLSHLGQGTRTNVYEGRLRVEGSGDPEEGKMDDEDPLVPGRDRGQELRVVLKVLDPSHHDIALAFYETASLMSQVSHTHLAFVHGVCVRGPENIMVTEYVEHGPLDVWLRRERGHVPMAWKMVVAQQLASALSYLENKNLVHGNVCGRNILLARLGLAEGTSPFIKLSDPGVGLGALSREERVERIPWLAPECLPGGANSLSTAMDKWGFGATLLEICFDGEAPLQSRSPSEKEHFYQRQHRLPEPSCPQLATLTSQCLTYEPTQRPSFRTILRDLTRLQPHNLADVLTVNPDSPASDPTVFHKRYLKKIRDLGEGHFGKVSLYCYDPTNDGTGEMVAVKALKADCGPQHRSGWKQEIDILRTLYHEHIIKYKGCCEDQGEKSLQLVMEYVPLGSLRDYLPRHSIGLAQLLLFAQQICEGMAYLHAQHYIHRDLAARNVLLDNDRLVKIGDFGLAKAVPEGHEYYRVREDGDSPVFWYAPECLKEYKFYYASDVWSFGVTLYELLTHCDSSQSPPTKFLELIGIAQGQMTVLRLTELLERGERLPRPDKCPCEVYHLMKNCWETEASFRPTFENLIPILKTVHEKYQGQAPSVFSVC

`COc1cc2ncnc(Nc3ccc(O)c(Br)c3)c2cc1OC` was tested, and the residual activity (IRAK1 (human)) was 75.5%, the residual activity (CAMK1G (human)) was 103% and the residual activity (VRK1 (human)) was 86.4%. For the same compound, the residual activity (YES1 (human)) was 34.6%, the residual activity (CHEK1 (human)) was 92.8% and the residual activity (TAOK3 (human)) was 98.8%. The residual activity (CDK2 CCNA2 (human)) was 88.7%, the residual activity [1] was 81.5% and the residual activity (DAPK3 (human)) was 99.1%. For the same compound, the residual activity (MAPK1 (human)) was 102%, the residual activity (CAMK2D (human)) was 95.7% and the residual activity (EPHB4 (human)) was 52.2%. It also gave a residual activity (TGFBR1 (human)) of 97.4%, a residual activity (JAK3 JH1 JH2 (human)) of 100% and a residual activity (TSSK1B (human)) of 84.7%. It also gave a residual activity (STK39 (human)) of 87.4%, a residual activity (MYLK2 (human)) of 87.3% and a residual activity (STK11 (human)) of 103%. The residual activity (GRK4 (human)) was 105%, the residual activity (CLK1 (human)) was 77.2% and the residual activity (CAMK2B (human)) was 99.3%. The residual activity (TYRO3 (human)) was 78.6%, the residual activity (PBK (human)) was 101% and the residual activity (GRK7 (human)) was 96.4%. For the same compound, the residual activity (PRKCH (human)) was 86.3%, the residual activity (DAPK2 (human)) was 100% and the residual activity (CAMK2A (human)) was 98%. The residual activity (CDK6 CCND3 (human)) was 102%, the residual activity [2] was 96.5% and the residual activity (AKT3 (human)) was 101%. For the same compound, the residual activity (PRKCI (human)) was 94%, the residual activity (RPS6KA5 KD2 (human)) was 93.4% and the residual activity (HIPK4 (human)) was 107%. For the same compound, the residual activity (STK33 (human)) was 80.7%, the residual activity (ROCK1 (human)) was 96.1% and the residual activity (CDK4 CCND1 (human)) was 101%. The residual activity (PIM2 (human)) was 94.1%, the residual activity (TSSK2 (human)) was 98.7% and the residual activity (PRKD1 (human)) was 70.1%. It also gave a residual activity (CDK3 CCNE1 (human)) of 93.5% and a residual activity (RIPK2 (human)) of 36.7%.
For `Nc1ncnc2c1cnn2-c1ccccc1`, the residual activity (IRAK1 (human)) was 85.8%, the residual activity (CAMK1G (human)) was 102% and the residual activity (VRK1 (human)) was 84.4%. For the same compound, the residual activity (YES1 (human)) was 93.7%, the residual activity (CHEK1 (human)) was 92.5% and the residual activity (TAOK3 (human)) was 89.1%. The residual activity (CDK2 CCNA2 (human)) was 108%, the residual activity [1] was 98.1% and the residual activity (DAPK3 (human)) was 103%. The residual activity (MAPK1 (human)) was 85.4%, the residual activity (CAMK2D (human)) was 94.7% and the residual activity (EPHB4 (human)) was 103%. The residual activity (TGFBR1 (human)) was 99.6%, the residual activity (JAK3 JH1 JH2 (human)) was 97.4% and the residual activity (TSSK1B (human)) was 84.1%. For the same compound, the residual activity (STK39 (human)) was 107%, the residual activity (MYLK2 (human)) was 99.9% and the residual activity (STK11 (human)) was 93.9%. The residual activity (GRK4 (human)) was 106%, the residual activity (CLK1 (human)) was 91.8% and the residual activity (CAMK2B (human)) was 97.8%. The residual activity (TYRO3 (human)) was 102%, the residual activity (PBK (human)) was 92.4% and the residual activity (GRK7 (human)) was 100%. The residual activity (PRKCH (human)) was 94.8%, the residual activity (DAPK2 (human)) was 96.7% and the residual activity (CAMK2A (human)) was 105%. For the same compound, the residual activity (CDK6 CCND3 (human)) was 92.2%, the residual activity [2] was 86.7% and the residual activity (AKT3 (human)) was 102%. For the same compound, the residual activity (PRKCI (human)) was 97.3%, the residual activity (RPS6KA5 KD2 (human)) was 89% and the residual activity (HIPK4 (human)) was 86.3%. For the same compound, the residual activity (STK33 (human)) was 96.1%, the residual activity (ROCK1 (human)) was 93.8% and the residual activity (CDK4 CCND1 (human)) was 103%. The residual activity (PIM2 (human)) was 98.2%, the residual activity (TSSK2 (human)) was 106% and the residual activity (PRKD1 (human)) was 98.1%. For the same compound, the residual activity (CDK3 CCNE1 (human)) was 96.2% and the residual activity (RIPK2 (human)) was 93.1%.
Work on `CCOc1cc2ncnc(Nc3cccc(Br)c3)c2cc1OCC` yielded a residual activity (IRAK1 (human)) of 95.1%, a residual activity (CAMK1G (human)) of 97.2% and a residual activity (VRK1 (human)) of 101%. For the same compound, the residual activity (YES1 (human)) was 43.2%, the residual activity (CHEK1 (human)) was 115% and the residual activity (TAOK3 (human)) was 96.2%. The residual activity (CDK2 CCNA2 (human)) was 91.9%, the residual activity [1] was 102% and the residual activity (DAPK3 (human)) was 103%. For the same compound, the residual activity (MAPK1 (human)) was 104%, the residual activity (CAMK2D (human)) was 87% and the residual activity (EPHB4 (human)) was 43%. The residual activity (TGFBR1 (human)) was 96.9%, the residual activity (JAK3 JH1 JH2 (human)) was 102% and the residual activity (TSSK1B (human)) was 92.9%. It also gave a residual activity (STK39 (human)) of 110%, a residual activity (MYLK2 (human)) of 93.5% and a residual activity (STK11 (human)) of 88%. It also gave a residual activity (GRK4 (human)) of 96.2%, a residual activity (CLK1 (human)) of 97.2% and a residual activity (CAMK2B (human)) of 98.8%. For the same compound, the residual activity (TYRO3 (human)) was 92.2%, the residual activity (PBK (human)) was 102% and the residual activity (GRK7 (human)) was 102%. It also gave a residual activity (PRKCH (human)) of 94.9%, a residual activity (DAPK2 (human)) of 103% and a residual activity (CAMK2A (human)) of 103%. It also gave a residual activity (CDK6 CCND3 (human)) of 104%, a residual activity [2] of 107% and a residual activity (AKT3 (human)) of 104%. It also gave a residual activity (PRKCI (human)) of 100%, a residual activity (RPS6KA5 KD2 (human)) of 95.8% and a residual activity (HIPK4 (human)) of 89.9%. The residual activity (STK33 (human)) was 93.9%, the residual activity (ROCK1 (human)) was 98.8% and the residual activity (CDK4 CCND1 (human)) was 94.2%. It also gave a residual activity (PIM2 (human)) of 98.9%, a residual activity (TSSK2 (human)) of 104% and a residual activity (PRKD1 (human)) of 95.4%. The residual activity (CDK3 CCNE1 (human)) was 95.2% and the residual activity (RIPK2 (human)) was 39.8%.
